Read-outs that look alike come from different tables or passages of the source.

Common to all, as to format: cell-based, human
Experiment [1] relates to SQ20B cells. The experiment in a line: Time-dependent cellular uptake (ICP-MS, fluorimetry). As to conditions: cisplatin dose 5 μM.
Procedure: The cellular uptake of NCP-1 particles in SQ20B cells was quantified by ICP-MS. […] The cells were centrifuged at 3,000 rpm for 5 min and the cell pellet was digested with 500 μL of concentrated nitric acid. […] Results were expressed as the amount of cisplatin (ng) per 10^5 cells.
Experiment [2] concerns SQ20B cells. The experiment in a line: Efflux of cisplatin and pyrolipid. To be noted: after 4-h uptake. Here is the method: The efflux of cisplatin and pyrolipid in SQ20B cells was quantified as follows. SQ20B cells were seeded on 6-well plates at 5×10^5 cells/well and incubated for 24 h. […] After incubating for 4 h, the culture medium was discarded and the cells were washed with PBS three times. […] Results were expressed as the percent of the amount of cisplatin or pyrolipid being effluxed compared to the 4-h cellular uptake amount. In order to understand the cellular uptake dynamics of NCP-1-pyrolipid, the efflux of cisplatin and pyrolipid in different formulations was determined. […] The cisplatin or pyrolipid amounts detected in the culture medium were compared with the 4-h uptake amounts to give the percent efflux (Table 9).

Experiment [3] has as its system JSQ3 cells. Kind of experiment: Cytotoxicity with or without irradiation, MTS assay. To be noted: read-out: Cisplatin IC50. Here is the method: (§1) The cells were seeded on 96-well plates at 2500 cells/well. […] After a 24-h incubation, the cells were irradiated with LED light (670 nm) at 60 mW/cm^2 for 15 min (equals to 54 J/cm^2). The cells without irradiation treatment served as controls. The cells were further incubated for 48 h. The cell viability was detected by (3-(4,5-dimethylthiazol-2-yl)-5-(3-carboxymethoxyphenyl)-2-(4-sulfophenyl)-2H-tetrazolium) (MTS) assay (Promega, Madison, Wis., United States of America) and the IC50 values were calculated accordingly. […] These findings were further supported by the flow cytometry results (Table 11).

Experiment [4] deals with SQ20B cells. The description is as above. As to conditions: read-out: Cisplatin IC50. Here is the method:
as §1

Experiment [5] has as its system HNSCC135 cells. The description is as above. To be noted: read-out: Cisplatin IC50. Here is the method: as §1
Experiment [6] relates to SCC61 cells. The experiment is described as above. To be noted: read-out: Cisplatin IC50. Here is the method: as §1
Experiment [7] has as its system SKOV-3 cells. The experiment in a line: Cytotoxicity of cisplatin/GMP NCP, MTS assay.
The subject of experiment [8] is H460 cells. The experiment in a line: Cytotoxicity of cisplatin/GMP NCP, MTS assay.
Experiment [9] concerns H460 cells. The experiment in a line: Cytotoxicity of Pten and Pten-NCP.
Experiment [10] deals with A2780 cells. The experiment in a line: Cytotoxicity of cisplatin/GMP NCP, MTS assay. Here is the method:
(§2) The cytotoxicity of NCP particles carrying cisplatin, GMP, and thiol siRNAs targeting survivin, Bcl-2, and ERCC-1 were evaluated against human ovarian cancer cells A2780, A2780/CDDP, SKOV-3 and human non-small cell lung cancer cell H460 by MTS assay.

The test system of experiment [11] is A2780R cells. The experiment in a line: Cytotoxicity of cisplatin/GMP NCP, MTS assay. Here is the method:
as §2

The test system of experiment [12] is SKOV-3 cells. Kind of experiment: Cytotoxicity of UiO formulations, MTS assay. As to conditions: read-out: cisplatin IC50. Here is the method:
To examine whether the efficient and simultaneous knockdown of three MDR-relevant genes including survivin, Bcl-2, and P-gp could effectively reverse the cisplatin resistance in ovarian cancer cells, the cytotoxicity of free cisplatin, UiO-Cis, and siRNA/UiO-Cis was assessed by 3-(4,5-dimethylthiazol-2-yl)-5-(3-carboxymethoxy-phenyl)-2-(4-sulfophenyl)-2H-tetrazolium (MTS) assay.

Experiment [13] has as its system SQ20B cells. The experiment in a line: Flow cytometry, apoptosis and necrosis (Annexin V/PI). Here is the method: SQ20B cells were seeded at 1×10^6 cells per well in 6-well plates and further cultured for 24 h. […] Cells incubated with PBS served as control. After a 24 h […] incubation, the cells were irradiated with light emitting diode (LED) light (670 nm) at 60 mW/cm^2 for 15 min (equals to 54 J/cm^2). Following a further incubation of 48 h, the floating and adherent cells were collected and stained with Alexa Fluor 488 Annexin V/dead cell apoptosis kit with Alexa Fluor 488 annexin V and PI (Invitrogen, Carlsbad, Calif., United States of America) according to manufacturer's instructions. The apoptosis and necrosis was examined on a flow cytometer (LSRII Blue, Becton, Dickinson, and Company, Franklin Lakes, N.J., United States of America).

Experiment [14] concerns ES-2 cells. Kind of experiment: In vitro cytotoxicity, MTS assay. To be noted: after a 72 h incubation, read-out: Cisplatin IC50. Here is the method: (§3) ES-2, OVCAR-3, SKOV-3, A2780, and A2780/CDDP cells were seeded at 5000 cells per well in 96-well plates and further cultured for 24 h. The culture media were replaced by 100 μL of fresh culture media containing 10% FBS. Cisplatin solution, NCP-1, NCP-1/siRNA containing pooled siRNAs, NCP-1/siRNA containing single siRNA, and Zn control/siRNA containing pooled siRNAs were added to the cells at different cisplatin or siRNA dose. Following incubation for 24 h, the cell viability was determined by (3-(4,5-dimethylthiazol-2-yl)-5-(3-carboxymethoxyphenyl)-2-(4-sulfophenyl)-2H-tetrazolium) (MTS) assay (Promega Corporation, Madison, Wis., United States of America) according to the manufacturer's instructions. […] The cytotoxicity of Zn control/siRNAs at the siRNA doses corresponding to cisplatin IC50 values was also evaluated.

In experiment [15] the test system is A2780 cells. The experiment in a line: In vitro cytotoxicity, MTS assay. As to conditions: after a 72 h incubation, read-out: Cisplatin IC50. Here is the method: as §3
Experiment [16] concerns A2780/CDDP cells. The experiment in a line: In vitro cytotoxicity, MTS assay. To be noted: after a 72 h incubation, read-out: Cisplatin IC50. Here is the method: as §3
Experiment [17] deals with OVCAR-3 cells. The experiment in a line: In vitro cytotoxicity, MTS assay. To be noted: after a 72 h incubation, read-out: Cisplatin IC50. Here is the method: as §3
For experiment [18], the system named is SKOV-3 cells. Kind of experiment: In vitro cytotoxicity, MTS assay. As to conditions: after a 72 h incubation, read-out: Cisplatin IC50. Here is the method: as §3
The subject of experiment [19] is cisplatin-resistant ovarian cancer cells. The experiment in a line: DNA ladder and Annexin V conjugate staining (UiO). Here is the method: Annexin V conjugate staining provided further evidence to the apoptosis induced by siRNA/UiO-Cis. siRNA loaded in the NMOFs were efficiently internalized into the cytoplasm after a 24-h incubation to trigger MDR-relevant gene silencing.

[20] abbreviates: read-out: IC50 as GMP concentration (numbers in parenthesis).

Regarding `N.N.[Cl][Pt][Cl]` [Free cisplatin, cisplatin], the Cisplatin uptake came to 51.7 ± 4.5 ng/10^5 cells in experiment [1] (1 h), 43.5 ± 1.4 ng/10^5 cells in [1] (2 h), 38.1 ± 0.8 ng/10^5 cells in [1] (4 h) and 38.5 ± 1.3 ng/10^5 cells in experiment [1] (24 h). Moreover, the Cisplatin efflux was determined as 12.0 ± 1.5% in experiment [2] (1 h); 13.5 ± 0.2% in experiment [2] (2 h); 18.2 ± 5.1% in experiment [2] (4 h); 20.0 ± 5.4% in experiment [2] (24 h); 20.0% in experiment [2] (24 h, listed as free cisplatin). Also, the IC50 in experiment [3] (irradiation No) was 11.3 ± 1.2 µM; in experiment [3] (irradiation Yes), 13.3 ± 2.03 µM; in experiment [4] (irradiation No), 3.92 ± 0.15 µM; in experiment [4] (irradiation Yes) it was 4.18 ± 0.11 µM; in experiment [5] (irradiation No), 3.37 ± 0.73 µM; in experiment [5] (irradiation Yes (670 nm, 54 J/cm^2)), 2.65 ± 0.13 µM. In addition, the IC50 in experiment [6] (irradiation No) was found to be 3.46 ± 0.08 µM; in experiment [6] (irradiation Yes) it was 3.69 ± 0.28 µM; in experiment [7] (read-out: Cisplatin IC50) it was 4.6 ± 0.7 µM; in [8] (read-out: Cisplatin IC50), 4.6 ± 0.6 µM; in [9], 4.8 µM; in [10] it was 0.764 ± 0.183 µM. Moreover, the IC50 in [11] (read-out: Cisplatin IC50) was 13.6 ± 3.2 µM; in experiment [12], 48.5 ± 4.3 µM; in experiment [14], 37.6 ± 1.9 µM; in [15], 4.4 ± 1 µM; in experiment [16] it was 24 ± 3.1 µM; in [17] it was 44.4 ± 3.2 µM. Moreover, in [18], the IC50 came out at 59.5 ± 1.2 µM. Further, the Necrosis % in experiment [13] (w/irradiation) and in experiment [13] (w/o irradiation) was 0.2% throughout. Moreover, the Apoptosis % in [13] (w/irradiation, cisplatin 5 μM or equivalent pyrolipid) stood at 38.1%; in experiment [13] (w/o irradiation) it was 37.9%. For the same compound, the “DNA fragmentation (DNA ladder)” value in experiment [19] is “No DNA fragmentation was detectable”.

In the case of gemcitabine monophosphate [GMP], the IC50 in experiment [7] (setting [20]) was 2.8 µM; in experiment [8] (setting [20]) it was 3.3 µM; in experiment [11] (setting [20]), 0.12 µM.

Values taken from patent US20200085742A1, “NANOSCALE CARRIERS FOR THE DELIVERY OR CO-DELIVERY OF CHEMOTHERAPEUTICS, NUCLEIC ACIDS AND PHOTOSENSITIZERS” (The University of Chicago, priority 2013, published 2020).
